Data reported in patent publication US8952033B2, “4-anilinofuro[2,3-b]quinoline derivatives, their preparation processes, and pharmaceutical compositions comprising the same” (Kaohsiung Medical University, priority 2011, dated 2015).

How the values were obtained:
[1] = test system: MCF-7 (breast cancer cell); assay: MTT antiproliferative assay (cell growth %, GI50), MCF-7; format: cell-based; settings: Homo sapiens, MCF7, 48 hours, MTT; for activity at 4000 µg/mL: 4 mg/ml; for activity at 20000 µg/mL: 20 mg/ml
Description: (§1) Antiproliferative activities of the compounds of this invention were evaluated substantially according to the method as described in Tseng, C. […] The cells were treated with the test compounds, i.e., the compounds of this invention (in dimethylsulfoxide (DMSO)), or DMSO for 48 hours.
(§2) Before and after the treatment with the test compounds or DMSO, 3-(4,5-dimethylthiazol-2-yl)-2,5-diphenyltetrazolium bromide (MTT, 2 mg/mL, 100 μL) was added to each of the cultures, followed by cultivation for 2 hours. The resultant formazan was dissolved by the addition of DMSO. Absorbance at 570 nm (OD570) was measured using a microtiter plate reader (Dynex MRX-II).
(§3) Determination of GI50 was conducted thrice for each test compound. GI50 is expressed as mean±SD.

[2] = test system: NCI-H460 (non-small cell lung carcinoma cell); assay: MTT antiproliferative assay (cell growth %, GI50), NCI-H460; format: cell-based; settings: Homo sapiens, NCI-H460, 48 hours, MTT; for activity at 4000 µg/mL: 4 mg/ml; for activity at 20000 µg/mL: 20 mg/ml
Description: as §1, §2, §3

| Compound | activity at 4000 µg/mL [1] [%] | activity at 20000 µg/mL [1] [%] | activity at 4000 µg/mL [2] [%] | activity at 20000 µg/mL [2] [%] |
| --- | --- | --- | --- | --- |
| C/C(=N\OCCN1CCCC1)c1ccc(Nc2c3ccccc3nc3occc23)cc1 [Compound 13e, (E)-1-(4-(Furo[2,3-b]quinolin-4-ylamino)phenyl)ethanone O-2-(pyrrolidin-1-yl)ethyl oxime] | 64 | 6 | 54 | 1 |
| C/C(=N\OCCCN(C)C)c1ccc(Nc2c3ccccc3nc3occ(Cl)c23)cc1 [Compound 14d, (E)-1-(4-(3-Chlorofuro[2,3-b]quinolin-4-ylamino)phenyl)ethanone O-3-(dimethylamino)propyl oxime] | 61 | 1 | 52 | 1 |
| C/C(=N\OCCCCN1CCOCC1)c1ccc(Nc2c3ccccc3nc3occc23)cc1 [Compound 13h, (E)-1-(4-(Furo[2,3-b]quinolin-4-ylamino)phenyl)ethanone O-4-morpholinobutyl oxime] | 76 | -2 | 118 | -1 |
| COc1ccc2c(Nc3ccc(/C(C)=N/OCCCN)cc3)c3c(Cl)coc3nc2c1 [Compound 16c, (E)-1-(4-(3-Chloro-7-methoxyfuro[2,3-b]quinolin-4-ylamino)phenyl)ethanone O-3-aminopropyl oxime] | 101 | 3 | 91 | 8 |
| C/C(=N\OCCN1CCCC1)c1ccc(Nc2c3ccccc3nc3occ(Cl)c23)cc1 [Compound 14e, (E)-1-(4-(3-Chlorofuro[2,3-b]quinolin-4-ylamino)phenyl)ethanone O-2-(pyrrolidin-1-yl)ethyl oxime] | 86 | -2 | 69 | -1 |
| COc1ccc2c(Nc3ccc(/C(C)=N/OCCN4CCOCC4)cc3)c3ccoc3nc2c1 [Compound 15g, (E)-1-(4-(7-Methoxyfuro[2,3-b]quinolin-4-ylamino)phenyl)ethanone O-2-morpholinoethyl oxime] | 76 | 25 | 96 | 44 |
| COc1ccc2c(Nc3ccc(/C(C)=N/OCCCN)cc3)c3ccoc3nc2c1 [Compound 15c, (E)-1-(4-(7-Methoxyfuro[2,3-b]quinolin-4-ylamino)phenyl)ethanone O-3-aminopropyl oxime] | 100 | 18 | 105 | 16 |
| C/C(=N\OCCN1CCCCC1)c1ccc(Nc2c3ccccc3nc3occ(Cl)c23)cc1 [Compound 14f, (E)-1-(4-(3-Chlorofuro[2,3-b]quinolin-4-ylamino)phenyl)ethanone O-2-(piperidin-1-yl)ethyl oxime] | 121 | 26 | 101 | 3 |
| COc1ccc2c(Nc3ccc(/C(C)=N/OCCCCN4CCOCC4)cc3)c3ccoc3nc2c1 [Compound 15h, (E)-1-(4-(7-Methoxyfuro[2,3-b]quinolin-4-ylamino)phenyl)ethanone O-4-morpholinobutyl oxime] | 83 | 75 | 89 | 21 |
| COc1ccc2c(Nc3ccc(/C(C)=N/OCCN4CCCC4)cc3)c3c(Cl)coc3nc2c1 [Compound 16e, (E)-1-(4-(3-Chloro-7-methoxyfuro[2,3-b]quinolin-4-ylamino)phenyl)ethanone O-2-(pyrrolidin-1-yl)ethyl oxime] | 55 | 1 | 53 | 5 |
| COc1ccc2c(Nc3ccc(/C(C)=N/OCCCN(C)C)cc3)c3ccoc3nc2c1 [Compound 15d, (E)-1-(4-(7-Methoxyfuro[2,3-b]quinolin-4-ylamino)phenyl)ethanone O-3-(dimethylamino)propyl oxime] | 59 | 2 | 82 | 5 |
| C/C(=N\OCCN1CCCCC1)c1ccc(Nc2c3ccccc3nc3occc23)cc1 [Compound 13f, (E)-1-(4-(Furo[2,3-b]quinolin-4-ylamino)phenyl)ethanone O-2-(piperidin-1-yl)ethyl oxime] | 114 | 3 | 99 | -1 |
| COc1ccc2c(Nc3ccc(/C(C)=N/OCCCCN4CCOCC4)cc3)c3c(Cl)coc3nc2c1 [Compound 16h, (E)-1-(4-(3-Chloro-7-methoxyfuro[2,3-b]quinolin-4-ylamino)phenyl)ethanone O-4-morpholinobutyl oxime] | 96 | 5 | 87 | 20 |
| C/C(=N\OCCCCN1CCOCC1)c1ccc(Nc2c3ccccc3nc3occ(Cl)c23)cc1 [Compound 14h, (E)-1-(4-(3-Chlorofuro[2,3-b]quinolin-4-ylamino)phenyl)ethanone O-4-morpholinobutyl oxime] | 75 | -3 | 91 | 3 |
| C/C(=N\OCCN(C)C)c1ccc(Nc2c3ccccc3nc3occc23)cc1 [Compound 13b, (E)-1-(4-(Furo[2,3-b]quinolin-4-ylamino)phenyl)ethanone O-2-(dimethylamino)ethyl oxime] | 59 | 0 | 94 | 0 |
| COc1ccc2c(Nc3ccc(/C(C)=N/OCCN4CCCCC4)cc3)c3c(Cl)coc3nc2c1 [Compound 16f, (E)-1-(4-(3-Chloro-7-methoxyfuro[2,3-b]quinolin-4-ylamino)phenyl)ethanone O-2-(piperidin-1-yl)ethyl oxime] | 56 | -1 | 67 | 3 |
| COc1ccc2c(Nc3ccc(/C(C)=N/OCCN4CCCCC4)cc3)c3ccoc3nc2c1 [Compound 15f, (E)-1-(4-(7-Methoxyfuro[2,3-b]quinolin-4-ylamino)phenyl)ethanone O-2-(piperidin-1-yl)ethyl oxime] | 77 | 2 | 84 | 9 |
| C/C(=N\OCCCN(C)C)c1ccc(Nc2c3ccccc3nc3occc23)cc1 [Compound 13d, (E)-1-(4-(Furo[2,3-b]quinolin-4-ylamino)phenyl)ethanone O-3-(dimethylamino)propyl oxime] | 84 | 22 | 52 | 7 |
| COc1ccc2c(Nc3ccc(/C(C)=N/OCCN(C)C)cc3)c3ccoc3nc2c1 [Compound 15b, (E)-1-(4-(7-Methoxyfuro[2,3-b]quinolin-4-ylamino)phenyl)ethanone O-2-(dimethylamino)ethyl oxime] | 67 | -1 | 75 | -1 |
| COc1ccc2c(Nc3ccc(/C(C)=N/OCCN4CCCC4)cc3)c3ccoc3nc2c1 [Compound 15e, (E)-1-(4-(7-Methoxyfuro[2,3-b]quinolin-4-ylamino)phenyl)ethanone O-2-(pyrrolidin-1-yl)ethyl oxime] | 63 | 3 | 69 | 5 |
| C/C(=N\OCCN1CCOCC1)c1ccc(Nc2c3ccccc3nc3occ(Cl)c23)cc1 [Compound 14g, (E)-1-(4-(3-Chlorofuro[2,3-b]quinolin-4-ylamino)phenyl)ethanone O-2-morpholinoethyl oxime] | 112 | 54 | 107 | 16 |
| C/C(=N\OCCN(C)C)c1ccc(Nc2c3ccccc3nc3occ(Cl)c23)cc1 [Compound 14b, (E)-1-(4-(3-Chlorofuro[2,3-b]quinolin-4-ylamino)phenyl)ethanone O-2-(dimethylamino)ethyl oxime] | 70 | -3 | 68 | -1 |
| C/C(=N\OCCN1CCOCC1)c1ccc(Nc2c3ccccc3nc3occc23)cc1 [Compound 13g, (E)-1-(4-(Furo[2,3-b]quinolin-4-ylamino)phenyl)ethanone O-2-morpholinoethyl oxime] | 120 | 56 | 108 | 23 |
| COc1ccc2c(Nc3ccc(/C(C)=N/OCCN4CCOCC4)cc3)c3c(Cl)coc3nc2c1 [Compound 16g, (E)-1-(4-(3-Chloro-7-methoxyfuro[2,3-b]quinolin-4-ylamino)phenyl)ethanone O-2-morpholinoethyl oxime] | 85 | 37 | 97 | 68 |
